Laboratory results: US20170240543A1, “CRYSTALLINE FORMS OF PALBOCICLIB” (Sun Pharmaceutical Industries Limited, priority 2014, published 2017)

Assays:
[1] = Specific surface area (Micromeritic Gemini VII 2390 Surface Analyzer); type: physicochemical
Experimental: Specific surface area was determined using a Micromeritic® Gemini® VII 2390 Surface Analyzer (Software: Gemini VII, version 1.03).

[2] = Filterability, electrostatic nature and flowability of the solid; type: physicochemical; settings: no comparator stated

specific surface area (SSA) [1]: greater than 2 m^2/g
filterability, electrostatic nature, and flowability [2]: improved
SMILES: CC(=O)c1c(C)c2cnc(Nc3ccc(N4CCNCC4)cn3)nc2n(C2CCCC2)c1=O [Form V-A, 6-acetyl-8-cyclopentyl-5-methyl-2-[[5-(1-piperazinyl)-2-pyridinyl]amino]pyrido[2,3-d]pyrimidin-7(8H)-one]
